# Measured values: patent US5462933A, “Modified bile acid conjugates, and their use as pharmaceuticals” (Hoechst Aktiengesellschaft, priority 1989, dated 1995)
# What was measured:
# [1] = system: freshly isolated hepatocytes; test: Metabolism by freshly isolated hepatocytes; type: in vitro ADME, rat; parameters: Distribution of the radioactivity: Metabolite 1 Rf = 0.32 / Distribution of the radioactivity: Metabolite 3 Rf = 0.21 (not identified): concentration or dose not given beside the values
# Procedure: Freshly isolated hepatocytes (1.8×10^6) in 750 μl of buffer I were incubated at 37° C. with 5.5 μCi of "Example 5". After 10, 20, 30, 40 and 60 min, 100 μl of the cell suspension were removed in each case, diluted with 10 ml of ice-cold buffer I and centrifuged at 1000×g for 5 min. The cell precipitate was treated twice with 100 μl of chloroform/methanol solution (1/1, v/v) each time to extract the bile acid. The organic extracts were evaporated in a stream of N2, and the residues were each taken up in 20 μl of dioxane and applied to HPTLC thin layer plates. After developing the chromatogram using n-butanol/acetic acid/water (9:1:2, v/v/v) as the eluent, the plate was dried, sprayed with 1M sodium salicylate solution in methanol and, after drying, placed on a Kodak-X-Omat AR X-ray film. After exposure at -80° C. for 1 week, the film was developed and the distribution of the radioactivity was determined by densitometry. The distribution of the radioactivity in the individual metabolites is given in %.
# [2] = system: liver cell proteins; test: Alkylation of liver cell proteins in freshly isolated hepatocytes; type: cell-based, rat
# Procedure: Freshly isolated hepatocytes (2×10^6) in 2 ml of buffer I were incubated at 37° C. with 30 μCi of "Example 5". After 10, 30, 40 and 60 min, in each case 500 μl of cell suspension (500 μg of protein) were removed and diluted with 10 ml of ice-cold buffer I. After centrifuging at 1000×g for 3 minutes, the precipitate was resuspended in 10 ml of buffer I and the suspension was centrifuged again. The cell precipitates were each dissolved in 100 μl of 62.5 mM tris/HCl buffer (pH 6.8)/2% SDS/5% 2-mercaptoethanol/10% glycerol/0.001% Bromophenol blue, centrifuged at 48,000×g for 30 min and the clear supernatants were applied to discontinuous SDS slab gels (200×170×2.7 mm). After the electrophoretic separation, the gels were fixed and stained. To determine the distribution of the radioactivity, the individual gel tracks were divided into 2 mm sections, the proteins were digested with Biolute S by incubation with 0.5 ml, and after addition of 5 ml of Quickszint 501 scintillator, the samples were measured in a liquid scintillation counter.
# [3] = system: 43,000 (cytoskeletal protein); test: Photoaffinity labeling of bile acid-binding proteins in hepatocytes in the presence of competitor; parameters: species or system rat
# Source text: (§1) The molecules of these physiologically relevant binding proteins for bile acids were identified and characterized by the method of photoaffinity labeling. The principle of this method consists in binding a photoreactive radioactively labeled bile acid derivative to the physiological binding protein analogously to the natural bile acids. By irradiation with UV light, highly reactive chemical intermediates such as carbenes, nitrenes or radicals are generated in this derivative which, owing to their high reactivity, immediately react with the binding proteins by addition to double bonds or insertion in single bonds and bind covalently to these. By means of this covalent linkage of the radioactive bile acid derivative with the binding protein, the binding proteins are then also radioactively labeled and can be identified by a separation of the various proteins of a liver cell, for example by electrophoresis, and their molecular weight determined.
# (§2) If such a photoaffinity labeling is carried out in the presence of a substance X' which also binds to the bile acid-binding proteins, then X' will compete with the radioactive bile acid derivative for binding to the bile acid-binding proteins; the radioactive labeling of the corresponding binding proteins will thus be lower in the presence of X'.
# (§3) 3.6×10^6 freshly isolated hepatocytes from rat liver (about 3 mg of protein) in 1.5 ml of buffer I (118 mM NaCl, 4.74 mM KCl, 0.59 mM KH2 PO4, 0.59 mM Na2 HPO4 ×2 H2 O, 1.185 mM MgCl2 ×6 H2 O, 24.87 mM NaHCO3, 1.25 mM CaCl2, 5.5 mM D-glucose, pH 7.35, buffer aerated with carbogen (95% O2 /5% CO2) for 1 h) were incubated at 37° C. […] in the dark with 1.25 μM (25 μCi) of (7,7-azo-3α-12α-dihydroxy-5β[3-^3 H]cholan-24-oyl)-2-aminoethanesulfonic acid in the absence or in the presence of 250 μM "Example 3" and then irradiated at […] with 16 RPR 3500 Å-lamps for 5 min in a Rayonet RPR-100 photoreactor. The cell suspension was then diluted with 10 ml of ice-cold buffer I and the cells sedimented by centrifuging at 1000×g for 3 minutes. The cells were resuspended again in 10 ml of buffer I and again sedimented by centrifugation. The precipitate was taken up in 600 μl of tris/HCl buffer (pH 6.8)/2% sodium dodecylsulfate (SDS)/5% 2-mercaptoethanol/10% glycerol/0.001% Bromophenol blue, heated to 90° C. for 5 min and centrifuged at 40,000×g for 20 min. The clear supernatant containing the solubilized proteins was used subsequently. In each case 100 μl (500 μg of protein) were applied to discontinuous SDS slab gels (200×170×2.7 mm, total acrylamide concentration 12%) and the proteins were separated by electrophoresis at a voltage of 50 V. After the electrophoresis, the gels were fixed in 12.5% strength trichloroacetic acid solution and stained using 0.08% Serva blue R 250 solution in 25% ethanol/8% acetic acid/67% water. After destaining, the gels were equilibrated in 1M sodium salicylate solution in 70% methanol for 20 min and then dried. The distribution of the radioactively labeled proteins was determined by the fluorographic method by placing the dried gels on Kodak-X-Omat AR X-ray films and exposing at -80° C. for 14 d. The blackened films were measured by densitometry. The decrease in the labeling of the various bile acid-binding proteins owing to the presence of "Example 3" during the photoaffinity labeling is given in % relative to the control.
# [4] = system: 36,000 (transport protein in the cytoplasm); test: as above; parameters: species or system rat
# Source text: as §1, §2, §3
# [5] = system: 48,000 (membrane transport protein); test: as above; parameters: species or system rat
# Source text: as §1, §2, §3
# [6] = system: 33,000 (binding protein in mitochondria); test: as above; parameters: species or system rat
# Source text: as §1, §2, §3
# [7] = system: 54,000 (membrane transport protein); test: as above; parameters: species or system rat
# Source text: as §1, §2, §3
# [8] = target: T1, 67,000 (albumin) (Rattus norvegicus, UniProt P02770); test: as above; conditions: decrease in labeling relative to control
# T1 construct: freshly isolated hepatocytes from rat liver; endogenous in cells; host or cells: freshly isolated rat hepatocytes
# T1 sequence (P02770 25-608): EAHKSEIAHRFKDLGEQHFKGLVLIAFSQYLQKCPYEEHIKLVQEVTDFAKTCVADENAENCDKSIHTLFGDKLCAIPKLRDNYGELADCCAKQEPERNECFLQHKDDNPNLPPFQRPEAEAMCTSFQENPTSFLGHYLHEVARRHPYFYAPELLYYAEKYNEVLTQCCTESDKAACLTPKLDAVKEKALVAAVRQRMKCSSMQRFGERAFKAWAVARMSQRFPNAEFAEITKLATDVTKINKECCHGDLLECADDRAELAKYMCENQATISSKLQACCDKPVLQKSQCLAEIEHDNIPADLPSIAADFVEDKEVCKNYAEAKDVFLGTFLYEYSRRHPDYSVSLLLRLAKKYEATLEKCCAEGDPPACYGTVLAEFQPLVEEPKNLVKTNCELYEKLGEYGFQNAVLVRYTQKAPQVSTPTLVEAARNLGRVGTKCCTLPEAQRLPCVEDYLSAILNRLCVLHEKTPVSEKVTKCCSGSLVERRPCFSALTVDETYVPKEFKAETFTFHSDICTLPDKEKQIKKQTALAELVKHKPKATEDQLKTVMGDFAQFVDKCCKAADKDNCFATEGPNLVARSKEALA
# Source text: as §1
# If such a photoaffinity labeling is carried out in the presence of a substance X' which also binds to the bile acid-binding proteins, then X' will compete with the radioactive bile acid derivative for binding to the bile acid-binding proteins; the radioactive labeling of the corresponding binding proteins will thus be lower in the presence of X'. […]
smiles,measurement,setting,value
[3H]C1(O)C[C@H]2[C@@H](CC[C@@H]3C[C@H](OC(=O)CCCc4ccc(N(CCCl)CCCl)cc4)CC[C@@]32C)[C@@H]2CC[C@H]([C@H](C)CCC(=O)NCCS(=O)(=O)O)[C@]21C (stereo partly shown) [Example 5],"Distribution of the radioactivity: ""Example 5"" Rf = 0.49",[1]; incubation 10 min,31.34%
same,Distribution of the radioactivity: Metabolite 1 Rf = 0.32,[1]; incubation 10 min,33.79%
same,Distribution of the radioactivity: Metabolite 2 Rf = 0.36,[1]; incubation 10 min,38.03%
same,Distribution of the radioactivity: Metabolite 3 Rf = 0.21 (not identified),[1]; incubation 10 min,5.62%
same,"Distribution of the radioactivity: ""Example 5"" Rf = 0.49",[1]; incubation 20 min,26.51%
same,Distribution of the radioactivity: Metabolite 1 Rf = 0.32,[1]; incubation 20 min,29.49%
same,Distribution of the radioactivity: Metabolite 2 Rf = 0.36,[1]; incubation 20 min,32.25%
same,Distribution of the radioactivity: Metabolite 3 Rf = 0.21 (not identified),[1]; incubation 20 min,11.74%
same,"Distribution of the radioactivity: ""Example 5"" Rf = 0.49",[1]; incubation 30 min,23.76%
same,Distribution of the radioactivity: Metabolite 1 Rf = 0.32,[1]; incubation 30 min,29.88%
same,Distribution of the radioactivity: Metabolite 2 Rf = 0.36,[1]; incubation 30 min,34.18%
same,Distribution of the radioactivity: Metabolite 3 Rf = 0.21 (not identified),[1]; incubation 30 min,12.16%
same,"Distribution of the radioactivity: ""Example 5"" Rf = 0.49",[1]; incubation 40 min,13.78%
same,Distribution of the radioactivity: Metabolite 1 Rf = 0.32,[1]; incubation 40 min,33.52%
same,Distribution of the radioactivity: Metabolite 2 Rf = 0.36,[1]; incubation 40 min,40.93%
same,Distribution of the radioactivity: Metabolite 3 Rf = 0.21 (not identified),[1]; incubation 40 min,11.75%
same,"Distribution of the radioactivity: ""Example 5"" Rf = 0.49",[1]; incubation 60 min,11.00%
same,Distribution of the radioactivity: Metabolite 1 Rf = 0.32,[1]; incubation 60 min,33.7%
same,Distribution of the radioactivity: Metabolite 2 Rf = 0.36,[1]; incubation 60 min,45.7%
same,Distribution of the radioactivity: Metabolite 3 Rf = 0.21 (not identified),[1]; incubation 60 min,10.3%
same,Absorption into the cell interior by the liver cells,[1]; result in words,is absorbed into the cell interior by the liver cells
same,Hydrolytic cleavage into free chlorambucil and bile acid,[1]; result in words,rapidly cleaved hydrolytically
same,Radioactive labeling of liver cell proteins,"[2]; in membranes, cytoplasm and cell organelles, result in words",leads to a radioactive labeling of liver cell proteins
same,Radioactivity in labeled liver proteins,[2]; incubation 0 min,< 30 cpm
same,Radioactivity in labeled liver proteins,"[2]; incubation 10 min, 48 kDa",408 cpm
same,Radioactivity in labeled liver proteins,"[2]; incubation 10 min, 67 kDa",102 cpm
same,Radioactivity in labeled liver proteins,"[2]; incubation 30 min, 28 kDa",2190 cpm
same,Radioactivity in labeled liver proteins,"[2]; incubation 30 min, 33 kDa",1116 cpm
same,Radioactivity in labeled liver proteins,"[2]; incubation 30 min, 42 kDa",1711 cpm
same,Radioactivity in labeled liver proteins,"[2]; incubation 30 min, 48 kDa",1375 cpm
same,Radioactivity in labeled liver proteins,"[2]; incubation 30 min, 54 kDa",1811 cpm
same,Radioactivity in labeled liver proteins,"[2]; incubation 30 min, 122 kDa",1064 cpm
same,Radioactivity in labeled liver proteins,"[2]; incubation 40 min, 28 kDa",2682 cpm
same,Radioactivity in labeled liver proteins,"[2]; incubation 40 min, 33 kDa",1474 cpm
same,Radioactivity in labeled liver proteins,"[2]; incubation 40 min, 42 kDa",2650 cpm
same,Radioactivity in labeled liver proteins,"[2]; incubation 40 min, 48 kDa",2420 cpm
same,Radioactivity in labeled liver proteins,"[2]; incubation 40 min, 54 kDa",2385 cpm
same,Radioactivity in labeled liver proteins,"[2]; incubation 40 min, 122 kDa",1549 cpm
same,Radioactivity in labeled liver proteins,"[2]; incubation 60 min, 28 kDa",2163 cpm
same,Radioactivity in labeled liver proteins,"[2]; incubation 60 min, 42 kDa",1725 cpm
same,Radioactivity in labeled liver proteins,"[2]; incubation 60 min, 48 kDa",2074 cpm
same,Radioactivity in labeled liver proteins,"[2]; incubation 60 min, 54 kDa",1949 cpm
same,Radioactivity in labeled liver proteins,"[2]; incubation 60 min, 122 kDa",997 cpm
C[C@H](CCC(=O)NCCS(=O)(=O)O)[C@H]1CC[C@H]2[C@@H]3CC[C@@H]4C[C@H](OC(=O)CCCc5ccc(N(CCCl)CCCl)cc5)CC[C@]4(C)[C@H]3CC(=O)[C@]12C [Example 3],"% Inhibition of bile acid-binding proteins by 250 μM ""Example 3""",[3],88.1%
same,"% Inhibition of bile acid-binding proteins by 250 μM ""Example 3""",[4],98.1%
same,"% Inhibition of bile acid-binding proteins by 250 μM ""Example 3""",[5],88.8%
same,"% Inhibition of bile acid-binding proteins by 250 μM ""Example 3""",[6],93.2%
same,"% Inhibition of bile acid-binding proteins by 250 μM ""Example 3""",[7],89.6%
same,"% Inhibition of bile acid-binding proteins by 250 μM ""Example 3""",[8],90.5%
